Measurements taken from patent publication US20160251725A1, “METHOD FOR PREDICTING CLINICAL TOXICITY AND OUTCOME” (AGENCY FOR SCIENCE, TECHNOLOGY AND RESEARCH, priority 2013, published 2016).
Where two headings read alike, the source gives them in different places.

Key:
[1] = tested on: mRCC patients; assay: Sunitinib toxicities in mRCC patients (CTCAE version 3.0), association with patient factors and genotypes; format: in vivo, human
Method: Twelve patients in this study received a starting dose of 50 mg daily. Six patients started with 25 mg daily due to advanced age or patients' aversion to expected toxicities.
Patient characteristics were also collected including age, gender, ethnicity, body weight and height, and Eastern Cooperative Oncology Group (ECOG) performance status. Memorial Sloan-Kettering Cancer Center (MSKCC) prognostic score was calculated for each patient with available data. All the collected data were de-identified by a third party before being used in statistical analysis. The follow-up period ended at the end of April, 2014.
The toxicities analyzed included leucopenia, neutropenia, thrombocytopenia, diarrhea, hand-foot syndrome and early toxicity-necessitated treatment termination. […] Early toxicity-necessitated treatment termination was defined as interruption of the first or second treatment cycle consented by the patient and the physician based on recognition of intolerable or life-threatening toxicities without evidence of progressive disease and failure to resume treatment as far as the patient was followed. For patients experiencing any toxicity grade≧2, cycle interruptions were frequently required; in such cases, a resumed treatment with 25% dose reduction would be applied for safety and life quality considerations.
Genotype associations with toxicity events or responsive tumor were first analyzed using univariate logistic regression. Genotypes generating P<0.20 were further analyzed using multivariate logistic regression including patient age, gender, baseline ECOG status and starting dose as covariates. Progression-free survival and overall survival were estimated by means of Kaplan-Meier method, while the associations of genotypes and patient characteristics with PFS and OS were analyzed using two-tailed log rank test. The effects of genotypes on the progression-free survival and overall survival were then evaluated using multivariate Cox regression model by including genotypes and patient characteristics with P<0.05 in univariate analysis. […] In all analyses, missing data were kept missing except for baseline ECOG status, which was replaced with the median value. As this was designed as a validation study of previously observed correlations rather than an exploratory evaluation, multiple testing correction was not done.

[2] = tested on: patients; details: cited from earlier work; for Dose reductions: n = 96, Beuselinck et al., 2014
[3] = ABCB1 2677 TT + AT + GT vs Other
[4] = ABCB1 haplotype TTT/TTT vs Other
[5] = ABCG2 421 C/A AA genotype, n = 65, Kim et al., 2013

CCN(CC)CCNC(=O)c1c(C)[nH]c(/C=C2\C(=O)Nc3ccc(F)cc32)c1C [sunitinib]
Decrease of the risk of diarrhea ([1]; ABCB1 1236 T allele): 25 fold
Decrease of the risk of early toxicity-necessitated treatment termination ([1]; ABCB1 1236 T allele): 10 fold
Decrease of the risk of neutropenia ([1]; ABCB1 1236 T allele): 3 fold
Diarrhea prevalence ([1]; ABCB1 1236 T/C CC): 7/9
Neutropenia prevalence ([1]; ABCB1 1236 T/C CC + CT): 27/52
Toxicity-necessitated treatment termination prevalence ([1]; ABCB1 1236 T/C CC + CT): 10/53
Neutropenia prevalence ([1]; ABCB1 1236 T/C TT): 11/32
Toxicity-necessitated treatment termination prevalence ([1]; ABCB1 1236 T/C TT): 2/30
Diarrhea prevalence ([1]; ABCB1 1236 T/C TT + CT): 13/82
Diarrhea OR multivariate ([1]; ABCB1 1236 TT + CT vs CC): 0.04
Diarrhea OR univariate ([1]; ABCB1 1236 TT + CT vs CC): 0.1
Neutropenia OR multivariate ([1]; ABCB1 1236 TT vs CC + CT): 0.3
Neutropenia OR univariate ([1]; ABCB1 1236 TT vs CC + CT): 0.5
Toxicity-necessitated treatment termination OR multivariate ([1]; ABCB1 1236 TT vs CC + CT): 0.1
Toxicity-necessitated treatment termination OR univariate ([1]; ABCB1 1236 TT vs CC + CT): 0.3
Neutropenia prevalence ([1]; ABCB1 2677 G/TA Other): 20/35
Neutropenia prevalence ([1]; ABCB1 2677 G/TA TT + AT + GT): 20/53
Decrease of the risk of neutropenia ([1]; ABCB1 2677 T allele): 3 fold
Neutropenia OR multivariate [1, 3]: 0.4
Neutropenia OR univariate [1, 3]: 0.5
Decrease of the risk of neutropenia ([1]; ABCB1 3435, 1236, 2677 TTT haplotype): 10 fold
Neutropenia prevalence ([1]; ABCB1 3435 C/T CC + CT): 38/75
Neutropenia prevalence ([1]; ABCB1 3435 C/T TT): 1/12
Decrease of the risk of diarrhea ([1]; ABCB1 3435 T allele): 3 fold
Decrease of the risk of neutropenia ([1]; ABCB1 3435 T allele): 10 fold
Diarrhea prevalence ([1]; ABCB1 3435 T/C CC): 11/34
Diarrhea prevalence ([1]; ABCB1 3435 T/C TT + CT): 9/60
Diarrhea OR multivariate ([1]; ABCB1 3435 TT + CT vs CC): 0.3
Diarrhea OR univariate ([1]; ABCB1 3435 TT + CT vs CC): 0.4
Neutropenia OR multivariate ([1]; ABCB1 3435 TT vs CC + CT): 0.1
Neutropenia OR univariate ([1]; ABCB1 3435 TT vs CC + CT): 0.1
Neutropenia prevalence ([1]; ABCB1 haplotype Other): 38/79
Neutropenia prevalence ([1]; ABCB1 haplotype TTT/TTT): 1/8
Neutropenia OR multivariate [1, 4]: 0.1
Neutropenia OR univariate [1, 4]: 0.2
Decrease of the risk of neutropenia ([1]; ABCG2 421 A allele): 3 fold
Neutropenia OR multivariate ([1]; ABCG2 421 AA vs CC + AC): 0.3
Neutropenia OR univariate ([1]; ABCG2 421 AA vs CC + AC): 0.5
Neutropenia prevalence ([1]; ABCG2 421 C/A AA): 16/44
Neutropenia prevalence ([1]; ABCG2 421 C/A CC + AC): 23/42
Diarrhea OR univariate ([1]; Age): 1.0
Leucopenia OR univariate ([1]; Age): 1.0
Neutropenia OR univariate ([1]; Age): 1.0
Toxicity-necessitated treatment termination OR univariate ([1]; Age): 1.1
Diarrhea prevalence ([1]; Baseline ECOG 0): 6/27
Leucopenia prevalence ([1]; Baseline ECOG 0): 1/25
Neutropenia prevalence ([1]; Baseline ECOG 0): 13/25
Toxicity-necessitated treatment termination prevalence ([1]; Baseline ECOG 0): 2/26
Diarrhea prevalence ([1]; Baseline ECOG 1): 9/50
Leucopenia prevalence ([1]; Baseline ECOG 1): 9/44
Neutropenia prevalence ([1]; Baseline ECOG 1): 22/46
Toxicity-necessitated treatment termination prevalence ([1]; Baseline ECOG 1): 7/44
Diarrhea OR univariate ([1]; Baseline ECOG 1 vs 0): 0.8
Leucopenia OR univariate ([1]; Baseline ECOG 1 vs 0): 6.2
Neutropenia OR univariate ([1]; Baseline ECOG 1 vs 0): 0.9
Toxicity-necessitated treatment termination OR univariate ([1]; Baseline ECOG 1 vs 0): 2.3
Diarrhea prevalence ([1]; Baseline ECOG 2): 4/12
Leucopenia prevalence ([1]; Baseline ECOG 2): 1/12
Neutropenia prevalence ([1]; Baseline ECOG 2): 5/12
Toxicity-necessitated treatment termination prevalence ([1]; Baseline ECOG 2): 2/12
Diarrhea OR univariate ([1]; Baseline ECOG 2 vs 0): 1.8
Leucopenia OR univariate ([1]; Baseline ECOG 2 vs 0): 2.2
Neutropenia OR univariate ([1]; Baseline ECOG 2 vs 0): 0.7
Toxicity-necessitated treatment termination OR univariate ([1]; Baseline ECOG 2 vs 0): 2.4
Diarrhea prevalence ([1]; Baseline ECOG 3): 1/6
Leucopenia prevalence ([1]; Baseline ECOG 3): 0/4
Neutropenia prevalence ([1]; Baseline ECOG 3): 0/5
Toxicity-necessitated treatment termination prevalence ([1]; Baseline ECOG 3): 2/5
Diarrhea OR univariate ([1]; Baseline ECOG 3 vs 0): 0.7
Toxicity-necessitated treatment termination OR univariate ([1]; Baseline ECOG 3 vs 0): 8.0
Diarrhea OR univariate ([1]; Female vs Male): 1.2
Leucopenia OR univariate ([1]; Female vs Male): 3.3
Neutropenia OR univariate ([1]; Female vs Male): 2.8
Toxicity-necessitated treatment termination OR univariate ([1]; Gender (printed on the Male row)): 0.9
Diarrhea prevalence ([1]; Gender Female): 5/21
Leucopenia prevalence ([1]; Gender Female): 5/20
Neutropenia prevalence ([1]; Gender Female): 13/20
Toxicity-necessitated treatment termination prevalence ([1]; Gender Female): 3/21
Diarrhea prevalence ([1]; Gender Male): 15/74
Leucopenia prevalence ([1]; Gender Male): 6/65
Neutropenia prevalence ([1]; Gender Male): 27/68
Toxicity-necessitated treatment termination prevalence ([1]; Gender Male): 10/66
Diarrhea prevalence ([1]; Starting dose 37.5 mg): 15/78
Leucopenia prevalence ([1]; Starting dose 37.5 mg): 10/70
Neutropenia prevalence ([1]; Starting dose 37.5 mg): 32/72
Toxicity-necessitated treatment termination prevalence ([1]; Starting dose 37.5 mg): 8/71
Diarrhea prevalence ([1]; Starting dose 50 mg): 3/12
Leucopenia prevalence ([1]; Starting dose 50 mg): 1/11
Neutropenia prevalence ([1]; Starting dose 50 mg): 7/11
Toxicity-necessitated treatment termination prevalence ([1]; Starting dose 50 mg): 2/12
Diarrhea OR univariate ([1]; Starting dose 37.5 vs <37.5 mg): 0.4
Neutropenia OR univariate ([1]; Starting dose 37.5 vs <37.5 mg): 3.2
Toxicity-necessitated treatment termination OR univariate ([1]; Starting dose 37.5 vs <37.5 mg): 0.0
Diarrhea OR univariate ([1]; Starting dose 50 vs <37.5 mg): 0.5
Neutropenia OR univariate ([1]; Starting dose 50 vs <37.5 mg): 7.0
Toxicity-necessitated treatment termination OR univariate ([1]; Starting dose 50 vs <37.5 mg): 0.1
Diarrhea prevalence ([1]; Starting dose <37.5 mg): 2/5
Leucopenia prevalence ([1]; Starting dose <37.5 mg): 0/4
Neutropenia prevalence ([1]; Starting dose <37.5 mg): 1/5
Toxicity-necessitated treatment termination prevalence ([1]; Starting dose <37.5 mg): 3/4
Leucopenia prevalence (cases affected/total in group) ([1]; all patients (n = 85), first cycle): 11/85
Toxicity-necessitated treatment termination before completing the first two cycles, prevalence ([1]; all patients (n = 87)): 13/87
Neutropenia prevalence (cases affected/total in group) ([1]; all patients (n = 88), first cycle): 40/88
Diarrhea prevalence (cases affected/total in group) ([1]; all patients (n = 95), first cycle): 20/95
Increase of the risk of leucopenia ([1]; both, human, in vivo): 8.0 fold
Increase of the risk of neutropenia ([1]; both, human, in vivo): 2.7 fold
Leucopenia prevalence ([1]; both, human, in vivo): 8/41
Severe to life-threatening toxicities ([1]; early use, initiated at 50 mg daily): frequently noted
Neutropenia prevalence ([1]; human, in vivo): 23/41
Dose reductions ([2]; ABCB1 1236 T/C TT genotype): Less dose
Dose reductions ([2]; ABCB1 2677G/TA TT or TA genotypes): Less dose
HFS (hand-foot syndrome) ([2]; ABCB1 TTT haplotype, n = 219, van Erp et al., 2009): HFS increased
HFS (hand-foot syndrome) [2, 5]: More
Neutropenia [2, 5]: More
Thrombocytopenia [2, 5]: More
Any toxicity grade>2 ([2]; in vivo): increased with T
Leucopenia ([2]; in vivo): increased with T
